Measured values published in patent US20060116505A1, “Glucose and/or fructose transporter naglt1 and its gene” (priority 2002, published 2006).

Experiments:
NaGLT1 [1] = target: T1, NaGLT1 (Rattus norvegicus, UniProt Q80T22, M166I/S3F); experiment: Effect of inhibitors on uptake of [14C]-labeled αMeGlc by NaGLT1-expressing oocytes; assay type: cell-based
T1 construct: expressed in transfected cells; host or cells: Xenopus oocytes injected with NaGLT1 RNA synthesized in vitro
T1 sequence (Q80T22 1-484 S3F/M166I): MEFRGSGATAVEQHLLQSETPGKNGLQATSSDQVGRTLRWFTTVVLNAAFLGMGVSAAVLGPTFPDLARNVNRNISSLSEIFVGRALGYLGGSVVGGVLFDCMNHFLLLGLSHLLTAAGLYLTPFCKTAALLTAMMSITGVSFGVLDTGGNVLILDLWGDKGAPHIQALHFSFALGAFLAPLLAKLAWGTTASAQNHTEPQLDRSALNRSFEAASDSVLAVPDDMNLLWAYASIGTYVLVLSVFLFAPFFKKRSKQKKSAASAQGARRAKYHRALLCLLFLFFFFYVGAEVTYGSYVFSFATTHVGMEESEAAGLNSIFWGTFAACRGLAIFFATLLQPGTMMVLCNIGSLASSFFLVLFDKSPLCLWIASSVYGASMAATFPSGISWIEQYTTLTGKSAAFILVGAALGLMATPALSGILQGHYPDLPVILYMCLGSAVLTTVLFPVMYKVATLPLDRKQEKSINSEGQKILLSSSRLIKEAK
Experimental: (§1) Uptake activity of NaGLT1 cRNA-injected cell and water-injected oocyte to [U-^14C]-α-methyl-D-glucopyranoside (α-MeGlc), D-[1-^14C] galactose, D-[U-^14C] mannose, D-[U-^14C] fructose, [1,2-^3H]-2-deoxy-glucose, D-[1-^3H] mannitol, [U-^14C] sucrose was measured. At that time, incubation was conducted in a buffer solution comprising 96 mM NaCl, 2 mM KCl, 1.8 mM CaCl2, 1 mM MgCl2, 5 mM HEPES (pH 7.4). Further, when extracellular Na^+ concentration dependency was conducted, the concentration of NaCl was adjusted to be within the range of 9.6 to 96 mM, and the final osmotic pressure was kept constant by making up for the shortage to 96 mM with choline chloride (FIGS. 6 and 7).

[2] = test system: renal brush border membrane vesicles; experiment: Na+-dependent uptake of [14C] fructose by renal brush border membrane vesicles; assay type: biochemical, rat; details: [14C] fructose 2 mM, 15 seconds at 25° C., glucose analog 30 mM, phloridzin or phloretin 50 μM; for Na+-dependent uptake of [14C] fructose by renal brush border membrane vesicles: KCl uptake deducted
Experimental: Membrane vesicles (20 μl) suspended in 100 mM mannitol and 10 mM HEPES (pH 7.5) were incubated with a substrate mixture (20 μl) containing 100 mM mannitol, 200 mM NaCl (black circle: ●) or KCl (white circle: ∘), 4 mM [^14C] fructose and 10 mM HEPES (pH 7.5) at 25° C. The values indicate mean±S.E.M of 3 independent experiments, respectively. Each experiment was conducted with brush border membrane vesicles isolated from 5 rats.
Na^+-dependent uptake of fructose by renal brush border membrane vesicles was analyzed in the presence of NaCl in an incubation buffer solution of various concentrations (0.1 to 20 mM) for 15 seconds at 25° C., and the uptake in case where NaCl is substituted with KCl was deduced. […] Each point indicates mean±S.E.M of 3 measurements. The apparent Km and Vmax values were obtained from 3 independent experiments.
In the presence and absence of phloridzin (50 μM) or phloretin (50 μM), a glucose analog (30 mM), membrane vesicles (20 μl) suspended in 100 mM mannitol and 10 mM HEPES (pH 7.5) were incubated with a substrate mixture (20 μl) containing [^14C] fructose (finally, 2 mM, 74 kBq/ml) for 15 seconds at 25° C., and the uptake in case where NaCl is substituted with KCl was deduced. […] The values indicate mean±S.E.M of 3 independent experiments, respectively.

rNaGLT1 = target: T2, rNaGLT1 (Rattus norvegicus, UniProt Q80T22, M166I/S3F); experiment: Uptake of [14C] fructose by HEK293 cells transfected with rNaGLT1; assay type: cell-based; details: [14C] fructose 0.1 mM, 15 minutes at 37° C., glucose analog 30 mM, phloridzin or phloretin 50 μM; for Uptake of [14C] fructose by HEK293 cells expressing rNaGLT1: vector uptake deducted
T2 construct: expressed in transfected cells; host or cells: HEK293 cells, transient transfection, assayed 2 days later
T2 sequence (Q80T22 1-484 S3F/M166I): T1 sequence (Q80T22 1-484 S3F/M166I)
Experimental: As to HEK293 cells incubated with buffer solution containing glucose analog (0.1 mM, 37 kBq/ml) for 15 minutes at 37° C., uptake analysis was conducted 2 days after the transfection of a vector (white column, 0.8 μg/well) or rNaGLT1 cDNA (black column, 0.8 μg/well). Each column indicates mean±S.E.M obtained from 3 single layers.
In the presence and absence of phloridzin (50 μM) or phloretin (50 μM), a glucose analog (30 mM), the uptake of [^14C] fructose (0.1 mM, 37 kBq/ml) by HEK293 cells transfected with rNaGLT1 was measured for 15 minutes at 37° C., and the uptake measured in HEK293 cells transfected with a vector was deducted. […] The values indicate mean±S.E.M of 3 independent experiments, respectively.

NaGLT1 [3] = target: T1, NaGLT1; experiment: Uptake of radio-labeled saccharides by NaGLT1-expressing Xenopus oocytes; assay type: cell-based
Experimental: Transportation activity of NaGLT1 was examined with the expression system of Xenopus oocytes (hereinafter abbreviated as oocytes). First, in order to examine the selectivity of various saccharides, NaGLT1 RNA synthesized in vitro was injected into the oocyte and incubated for 2 days at 18° C., then used for the experiment.
as §1
Next, concentration dependency of αMeGlc uptake was examined by using NaGLT1-expressing oocytes. […] In addition, the effect of extracellular Na^+ ion concentration on the uptake of αMeGlc mediated by NaGLT1 was analyzed. First, extracellular Na^+ concentration was varied from 0 to 96 mM, at the state wherein membrane potential difference was eliminated by the addition of 7 μM valinomycin, and the effect of extracellular Na^+ on the uptake of αMeGlc by rNaGLT1 was examined. […] Further, by examination of dose- or extracellular Na^+-dependancy to the uptake of αMeGlc by rNaGLT1 (FIGS. 6A and 6C), Vmax value (the maximum transport rate) and Km value were calculated for each case. Based on those values, Hill plot (logarithmic values of the figure calculated by dividing Vmax by transport rate V when the abscissa axis is the concentration of varied substrate or ion, and ordinate axis is each substrate (or ion) concentration) was conducted (FIGS. 6B and 6D) and Hill coefficient was calculated. […]

| Structure (SMILES) | effect on the uptake of [14C]-labeled αMeGlc (NaGLT1 [1]) | Na+-dependent uptake of [14C] fructose by renal brush border membrane vesicles, % of control [2] | Na+-dependent uptake of [14C] fructose by renal brush border membrane vesicles [2] [Pmol/mg protein/sec] | Uptake of [14C] fructose by HEK293 cells expressing rNaGLT1, % of control (rNaGLT1) | Uptake of [14C] fructose by HEK293 cells expressing rNaGLT1 (rNaGLT1) [Pmol/mg protein/min] | Hill coefficient (NaGLT1 [3]; Hill plot of αMeGlc uptake by rNaGLT1, dose- or extracellular Na+-dependency) | Km (NaGLT1 [3]; NaGLT1-expressing oocytes, concentration dependency, read-out: Km value of αMeGlc uptake) [mM] | uptake of radio-labeled saccharide in comparison to water-injected oocytes (NaGLT1 [3]; NaGLT1 RNA-injected Xenopus oocytes, incubated 2 days at 18° C.) |
| --- | --- | --- | --- | --- | --- | --- | --- | --- |
| O=C[C@H](O)[C@@H](O)[C@H](O)[C@H](O)CO [D-glucose] | extremely strong inhibitory effect | – | – | – | – | – | – | – |
| O=CC[C@@H](O)[C@H](O)[C@H](O)CO [2-DG, 2-deoxyglucose] | extremely strong inhibitory effect | 34 % of control | 16.8 ± 3.7 | 70 % of control | 2.04 ± 0.19 | – | – | – |
| O=C[C@H](O)[C@@H](O)[C@@H](O)[C@H](O)CO [Galactose, galactose] | no effect | 71 % of control | 35.2 ± 3.3 | 99 % of control | 2.88 ± 0.23 | – | – | – |
| CO[C@@H]([C@H](O)[C@H](O)CO)[C@@H](O)C=O [3-OMG, 3-O-methylglucose] | no effect | 95 % of control | 47.1 ± 4.5 | 89 % of control | 2.60 ± 0.15 | – | – | – |
| O=C(CO)[C@@H](O)[C@H](O)[C@H](O)CO [Fructose, fructose] | weak inhibitory effect | 11 % of control | 5.4 ± 2.1 | 8 % of control | 0.22 ± 0.06 | – | – | – |
| OC[C@H]1O[C@@](CO)(O[C@H]2O[C@H](CO)[C@@H](O)[C@H](O)[C@H]2O)[C@@H](O)[C@@H]1O [Sucrose, sucrose] | – | 96 % of control | 47.3 ± 6.0 | 144 % of control | 4.20 ± 0.17 | – | – | – |
| O=C[C@@H](O)[C@H](O)[C@@H](O)[C@@H](O)CO [L-glucose] | no effect | – | – | – | – | – | – | – |
| O=C(CCc1ccc(O)cc1)c1c(O)cc(O)cc1O [Phloretin, phloretin] | weak inhibitory effect | 72 % of control | 35.8 ± 3.5 | 33 % of control | 0.97 ± 0.09 | – | – | – |
| OC[C@H]1O[C@H](CO)[C@@H](O)[C@@H]1O [2,5-AM] | – | 78 % of control | 38.6 ± 2.6 | 40 % of control | 1.16 ± 0.16 | – | – | – |
| O=C(CCc1ccc(O)cc1)c1c(O)cc(O)cc1O[C@@H]1O[C@H](CO)[C@@H](O)[C@H](O)[C@H]1O [Phloridzin, phloridzin] | – | – | – | 12 % of control | – | – | – | – |
| CO[C@H]1O[C@H](CO)[C@@H](O)[C@H](O)[C@H]1O [αMeGlc, α-methyl-D-glucopyranoside] | extremely strong inhibitory effect | 48 % of control | 23.8 ± 2.1 | 42 % of control | 1.24 ± 0.13 | 1.06 | 3.71 ± 0.09 | significantly high |
